pIC50: −log10 of the molar value.
Experiments:
CDK1/Cyclin B1 = CDK1/Cyclin B1 (Homo sapiens (Human), UniProt P06493); assay: CDK1/Cyclin B1 ADP-Glo Kinase Assay; assay type: biochemical
Protocol: CDK1/Cyclin B1 ADP-Glo Kinase Assay
(§1) The purpose of CDK1/Cyclin Bi assay is to evaluate the inhibition (% inhibition and IC50 values) of small molecule inhibitors by using a Luminescent based ADP-Glo assay. CDK1/Cyclin B1 catalyzes the production of ADP from ATP. ADP-Glo assay monitors ADP producing biochemical reactions. ADP-Glo is performed in 2 steps upon completion of kinase reaction: a combined termination of kinase reaction and depletion of remaining ATP in the first step, and conversion of generated ADP to ATP and the newly produced ATP to light output using luciferase/luciferin reaction in the second step. The luminescent signal generated is proportional to the ADP concentration produced and is correlated with the kinase activity. CDK1/Cyclin B1 was purchased from Carna (Cat 04-102). […] The assay was initiated with the addition of ATP-containing substrate solution, following a 30-minute pre-incubation of enzyme and inhibitor at room temperature in the reaction mixture. The reaction was stopped after 90 minutes at room temperature by the addition of 10 μL of ADP-GLO Reagent. After a 90 minute incubation, 20 μL of Kinase Detection Reagent was added. Samples were incubated for 40 minutes, after which plate well luminescence was measured on a Envision microplate reader. The IC50 determinations were made from a plot of the fractional velocity as a function of inhibitor concentration fit to the 4 parameters IC50 equation.

CDK6/Cyclin D3 = CDK6/Cyclin D3 (Homo sapiens (Human), UniProt Q00534); assay: CDK6/Cyclin D3 ADP-Glo Kinase Assay; assay type: biochemical; conditions: read-out: CDK6/CyclinD3 IC50
Protocol: CDK6/Cyclin D3 ADP-Glo Kinase Assay
as §1, with “of the CDK6/Cyclin D3” for “of CDK1/Cyclin Bi”, “values) in the presence” for “values)”, “assay. CDK6/Cyclin D3” for “assay. CDK1/Cyclin B1”, “activity. CDK6/Cychin D3” for “activity. CDK1/Cyclin B1”, “from Carna.” for “from Carna (Cat 04-102).”, “a 90-minute” for “a 90 minute”

Sequence of CDK1/Cyclin B1 (P06493 whole entry): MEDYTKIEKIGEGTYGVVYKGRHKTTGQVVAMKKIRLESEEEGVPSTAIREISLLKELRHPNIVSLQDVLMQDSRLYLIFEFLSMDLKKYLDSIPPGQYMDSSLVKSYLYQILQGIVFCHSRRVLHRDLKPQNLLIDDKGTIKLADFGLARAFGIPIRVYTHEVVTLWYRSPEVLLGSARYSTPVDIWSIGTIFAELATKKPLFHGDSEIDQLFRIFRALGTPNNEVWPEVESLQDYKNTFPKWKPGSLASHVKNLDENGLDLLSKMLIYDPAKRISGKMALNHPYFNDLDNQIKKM
Sequence of CDK1/Cyclin B1 (P14635 whole entry partner): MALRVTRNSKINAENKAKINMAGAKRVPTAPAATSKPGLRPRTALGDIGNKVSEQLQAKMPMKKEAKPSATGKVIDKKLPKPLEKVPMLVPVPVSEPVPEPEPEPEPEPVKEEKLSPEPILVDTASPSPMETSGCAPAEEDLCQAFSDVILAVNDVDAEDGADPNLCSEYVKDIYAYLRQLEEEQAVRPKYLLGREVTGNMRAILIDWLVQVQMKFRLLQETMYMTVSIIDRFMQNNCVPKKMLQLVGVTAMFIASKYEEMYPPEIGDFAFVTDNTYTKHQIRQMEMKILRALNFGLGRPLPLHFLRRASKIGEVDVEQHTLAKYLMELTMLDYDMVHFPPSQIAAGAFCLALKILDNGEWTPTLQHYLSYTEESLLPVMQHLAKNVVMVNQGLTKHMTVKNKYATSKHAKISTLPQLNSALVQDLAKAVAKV
Sequence of CDK6/Cyclin D3 (Q00534 whole entry): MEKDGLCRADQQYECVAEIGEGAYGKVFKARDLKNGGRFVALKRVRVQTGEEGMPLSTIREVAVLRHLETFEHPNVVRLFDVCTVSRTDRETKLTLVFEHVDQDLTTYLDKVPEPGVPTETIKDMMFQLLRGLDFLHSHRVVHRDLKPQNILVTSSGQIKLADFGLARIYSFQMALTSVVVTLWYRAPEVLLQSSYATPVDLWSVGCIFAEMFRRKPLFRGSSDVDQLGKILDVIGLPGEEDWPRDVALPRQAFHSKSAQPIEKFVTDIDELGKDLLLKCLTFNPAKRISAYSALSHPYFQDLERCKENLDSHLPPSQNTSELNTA
Sequence of CDK6/Cyclin D3 (P30281 whole entry partner): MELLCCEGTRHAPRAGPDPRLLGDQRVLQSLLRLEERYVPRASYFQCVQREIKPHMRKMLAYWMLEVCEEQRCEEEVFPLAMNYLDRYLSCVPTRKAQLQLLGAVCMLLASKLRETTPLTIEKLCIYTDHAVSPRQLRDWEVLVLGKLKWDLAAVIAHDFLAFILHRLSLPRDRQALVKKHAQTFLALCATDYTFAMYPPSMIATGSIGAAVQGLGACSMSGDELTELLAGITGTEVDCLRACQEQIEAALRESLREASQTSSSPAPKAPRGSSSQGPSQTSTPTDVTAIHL

Row | SMILES | pIC50 (CDK1/Cyclin B1) | pIC50 (CDK6/Cyclin D3)
1 | CN1C[C@@H]2[C@H](C1)[C@H]2Nc1ncc2ccnc(N3CCC4(CCN(S(C)(=O)=O)C4)C3)c2n1 (stereo partly drawn) [Compound 15, N-((1R,5S,6s)-3-methyl-3-azabicyclo[3.1.0]hexan-6-yl)-8-(7-(methylsulfonyl)-2,7-diazaspiro[4.4]nonan-2-yl) pyrido[3,4-d]pyrimidin-2-amine] | < 5.70 | < 5.70
2 | CS(=O)(=O)N1CCC(Nc2ncc3ccnc(N4CC5(CCCC5)c5c(F)cccc54)c3n2)CC1 [Compound 19, 8-(4′-fluorospiro [cyclopentane-1,3′-indolin]-1′-yl)-N-(1-(methylsulfonyl)piperidin-4-yl)pyrido[3,4-d]pyrimidin-2-amine] | < 5.70 | < 5.70
3 | Cc1cc2cnc(Nc3cnn(C4CN(CC#N)C4)c3)nc2c(N2CC3(CN(C)C3)C2)n1 [Compound 31, 2-(3-(4-((6-methyl-8-(6-methyl-2,6-diazaspiro[3.3]heptan-2-yl)pyrido[3,4-d]pyrimidin-2-yl)amino)-1H-pyrazol-1-yl)azetidin-1-yl)acetonitrile] | < 5.70 | –
4 | Cc1cc2cnc(NC3CCN(S(C)(=O)=O)CC3)nc2c(N2CCC3(C2)CC3(F)F)n1 (stereo not shown) [Compound 41, 8-(1,1-difluoro-5-azaspiro[2.4]heptan-5-yl)-6-methyl-N-(1-(methylsulfonyl)piperidin-4-yl)pyrido[3,4-d]pyrimidin-2-amine] | > 6.70 | –
5 | [2H]C([2H])([2H])N1CC2(CN(c3nc(C)cc4cnc(NC5CCN(S(=O)(=O)c6cnn(C)c6)CC5)nc34)CC2(F)F)C1 [Example 11, 8-(8,8-difluoro-2-(methyl-d3)-2,6-diazaspiro[3.4]octan-6-yl)-6-methyl-N-(1-((1-methyl-1H-pyrazol-4-yl)sulfonyl)piperidin-4-yl)pyrido[3,4-d]pyrimidin-2-amine] | > 6.70 | –

Results, then the compound that gave them:

Row | pIC50 (CDK1/Cyclin B1) | pIC50 (CDK6/Cyclin D3) | SMILES
6 | > 6.70 | – | [2H]C([2H])([2H])N1CC2(CN(c3nc(C)cc4cnc(NC5CCN(S(=O)(=O)C6CC6)CC5)nc34)CC2(F)F)C1 [Compound 13, N-(1-(cyclopropylsulfonyl)piperidin-4-yl)-8-(8,8-difluoro-2-(methyl-d3)-2,6-diazaspiro[3.4]octan-6-yl)-6-methylpyrido[3,4-d]pyrimidin-2-amine]
7 | < 5.70 | < 5.70 | Cc1cc2cnc(Nc3cnn(CC4(N(C)C)CC4)c3)nc2c(N2CCC(C#N)(C3CC3)C2)n1 (stereo not shown) [Compound 38, 3-cyclopropyl-1-(2-((1-((1-(dimethylamino)cyclopropyl)methyl)-1H-pyrazol-4-yl)amino)-6-methylpyrido[3,4-d]pyrimidin-8-yl)pyrrolidine-3-carbonitrile]
8 | > 6.70 | – | CS(=O)(=O)N1CCC(Nc2ncc3cc(C4CC4)nc(C4CC5(CNCCO5)C4)c3n2)CC1 (stereo not shown) [Compound 70, 6-cyclopropyl-N-(1-(methylsulfonyl)piperidin-4-yl)-8-(5-oxa-8-azaspiro[3.5]nonan-2-yl)pyrido[3,4-d]pyrimidin-2-amine]
9 | > 6.70 | – | Cc1cc2cnc(NC3CCN(S(C)(=O)=O)CC3)nc2c(C2CC3(CNCC3(F)F)C2)n1 (stereo not shown) [Compound 99, 8-(8,8-difluoro-6-azaspiro[3.4]octan-2-yl)-6-methyl-N-(1-(methylsulfonyl)piperidin-4-yl)pyrido[3,4-d]pyrimidin-2-amine]
10 | > 6.70 | – | [2H]C([2H])([2H])N1CC2(CN(c3nc(C)cc4cnc(NC5CCN(S(C)(=O)=O)CC5)nc34)CC2(F)F)C1 [Example 12, 8-(8,8-difluoro-2-(methyl-d3)-2,6-diazaspiro[3.4]octan-6-yl)-6-methyl-N-(1-(methylsulfonyl)piperidin-4-yl)pyrido[3,4-d]pyrimidin-2-amine]

Source: patent US20250235456A1, “METHODS OF USE FOR AZA-QUINAZOLINE COMPOUNDS” (Iambic Therapeutics, Inc., priority 2024, published 2025)
